Experimental data from patent US20190369122A1, “METABOLIC DISORDERS” (priority 2016, published 2019).

What was measured:
[1] = system: amino acid-deprived primary hepatocytes; assay: Amino acid-deprived primary hepatocytes (immunoblot); assay type: cell-based, mouse; conditions: absence of amino acids; 100 μM for 2 h
Description: Primary hepatocytes were isolated from C57BL/6J mice by digesting liver with perfusion of collagenase type IV as described previously. After perfusion, 16×10^5 cells were plated on collagen-coated 60 mm dishes in Dulbecco's modified Eagle's medium (DMEM)/F12 supplemented with fetal bovine serum (FBS), penicillin/streptomycin and 100 nM dexamethasone. After 4 h, the medium was changed to DMEM/F12 containing penicillin/streptomycin.

[2] = system: GF mice; assay: Intraperitoneal glucose tolerance test in GF mice; assay type: in vivo, mouse; conditions: 500 μg i.p. twice per day for 3 days
Description: (§1) An intraperitoneal glucose tolerance test (using 1 g glucose per kg body weight) was then performed after a 4 h fast. Blood glucose levels were measured from tail blood using HemoCue201+analyzer (HemoCue, Angelholm, Sweden). Liver and plasma samples were collected after a 4 h fast. Mice were under isoflurane anesthesia and killed by cervical dislocation. Fresh liver was taken and snap-frozen in liquid nitrogen and stored at −80° C. until protein extraction.

[3] = target: T1, p38γ (Homo sapiens, UniProt P53778); assay: In vitro kinase assay; assay type: biochemical
T1 construct: purchased Abcam ab125651
T1 sequence (P53778 1-367): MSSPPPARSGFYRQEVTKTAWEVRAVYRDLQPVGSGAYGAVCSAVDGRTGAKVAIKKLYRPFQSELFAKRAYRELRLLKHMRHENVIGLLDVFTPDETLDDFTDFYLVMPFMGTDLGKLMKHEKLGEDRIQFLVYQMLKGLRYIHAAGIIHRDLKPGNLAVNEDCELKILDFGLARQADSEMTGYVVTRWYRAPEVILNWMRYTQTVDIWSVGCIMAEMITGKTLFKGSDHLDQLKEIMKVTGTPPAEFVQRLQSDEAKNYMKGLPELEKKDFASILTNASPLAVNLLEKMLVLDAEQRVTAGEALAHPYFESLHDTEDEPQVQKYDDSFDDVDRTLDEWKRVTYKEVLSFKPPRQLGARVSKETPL
Description: 400 ng of recombinant p62 (Abcam, ab95320) and 200 ng of recombinant p38γ (Abcam, ab125651) were incubated in a kinase assay buffer [25 mM MOPS (pH 7.2), 12.5 mM beta-glycerol-phosphate, 25 mM MgCl2, 5 mM EGTA, 2 mM EDTA and 1 mM DTT] for 15 min on ice.

[4] = system: CONVR mice; assay: Intraperitoneal glucose tolerance test in CONVR mice; assay type: in vivo, mouse; conditions: 100 μg i.p. twice per day for 3 days
Description: as §1

O=C(O)CCc1cnc[nH]1 [imidazole propionate]
S6K1 phosphorylation [1]: strongly induced
glucose tolerance [2]: significant glucose intolerance
p62 phosphorylation (T269 and S272) by p38γ ([3]; recombinant p38γ and p62, ATP 50 μM): enhanced
p38γ autophosphorylation ([3]; together with ATP): induced
glucose tolerance [4]: impaired glucose tolerance
